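How tested: cells in 96-well plates exposed to compound for 48 hours at five concentrations. GI50 = concentration required for 50% inhibition of growth.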 Active and inactive are the calls of the source. Rule as the data show it: active = GI50 up to about 1.1 µM and inactive = higher.
Legend:
Test in all cases: NCI anticancer screen, dose series, 48 h
HL-60 = test system: HL-60
COLO 205 = test system: COLO 205
HT-29 = test system: HT-29
SW-620 = test system: SW-620
MDA-MB-435 = test system: MDA-MB-435
ACHN = test system: ACHN
SF-268 = test system: SF-268
HCT-116 = test system: HCT-116
SF-539 = test system: SF-539
A549 = test system: A549
MCF7 = test system: MCF7
UO-31 = test system: UO-31
NCI-H23 = test system: NCI-H23
HCT-15 = test system: HCT-15
M14 = test system: M14
SK-MEL-5 = test system: SK-MEL-5
SK-MEL-2 = test system: SK-MEL-2
OVCAR-4 = test system: OVCAR-4
UACC-62 = test system: UACC-62

| Structure (SMILES) | GI50 (HL-60) | GI50 (COLO 205) | GI50 (HT-29) | GI50 (SW-620) | GI50 (MDA-MB-435) | GI50 (ACHN) | GI50 (SF-268) | GI50 (HCT-116) | GI50 (SF-539) | GI50 (A549) | GI50 (MCF7) | GI50 (UO-31) | GI50 (NCI-H23) | GI50 (HCT-15) | GI50 (M14) | GI50 (SK-MEL-5) | GI50 (SK-MEL-2) | GI50 (OVCAR-4) | GI50 (UACC-62) |
| --- | --- | --- | --- | --- | --- | --- | --- | --- | --- | --- | --- | --- | --- | --- | --- | --- | --- | --- | --- |
| Cc1cc(C)c(N[S+]([O-])c2cccc(Cl)c2)c(C)c1 (stereo unspecified) | > 100 µM (inactive) | > 100 µM (inactive) | > 100 µM (inactive) | > 100 µM (inactive) | > 100 µM (inactive) | > 100 µM (inactive) | > 100 µM (inactive) | > 100 µM (inactive) | > 100 µM (inactive) | > 100 µM (inactive) | > 100 µM (inactive) | > 100 µM (inactive) | > 100 µM (inactive) | > 100 µM | > 100 µM (inactive) |  |  |  |  |
| CC1=CC(=O)/C(=C/NC(=S)NCCc2ccccc2)C(=O)O1 | > 100 µM (inactive) | > 100 µM (inactive) | > 100 µM (inactive) | > 100 µM (inactive) | > 100 µM (inactive) | > 100 µM (inactive) |  | 27.2 µM (inactive) | > 100 µM (inactive) | > 100 µM (inactive) | > 100 µM (inactive) | > 100 µM (inactive) | > 100 µM (inactive) | > 100 µM | > 100 µM (inactive) | > 100 µM (inactive) | > 100 µM (inactive) | > 100 µM (inactive) |  |
| O=S(=O)(c1ccccc1)N1CN2CN(C1)CN(S(=O)(=O)c1ccccc1)C2 | 26.6 µM (inactive) | > 100 µM (inactive) | > 100 µM (inactive) | > 100 µM (inactive) | > 100 µM (inactive) | 79.8 µM (inactive) |  | > 100 µM (inactive) | > 100 µM (inactive) | > 100 µM (inactive) | > 100 µM (inactive) | > 100 µM (inactive) | > 100 µM (inactive) | > 100 µM | > 100 µM (inactive) | > 100 µM (inactive) | > 100 µM (inactive) | > 100 µM (inactive) | > 100 µM (inactive) |
| COc1ccc(C2(Cl)C(Cl)(C(F)(F)F)C2(Cl)C(F)(F)F)cc1 (stereo unspecified) | 8.38 µM (inactive) | 15.9 µM (inactive) | 14.4 µM (inactive) | 15 µM (inactive) |  | 16.8 µM (inactive) | 15.6 µM (inactive) | 11.7 µM (inactive) | 15.2 µM (inactive) | 14.9 µM (inactive) |  | 16 µM (inactive) | 14.7 µM (inactive) | 14.2 µM | 11.9 µM (inactive) | 10.4 µM (inactive) | 14.2 µM (inactive) | 16.4 µM (inactive) | 13.6 µM (inactive) |
| CCOC(=O)c1c(C(F)(F)F)oc2c1ccc1nc3nonc3nc12 | 4.46 µM (inactive) | 24.2 µM (inactive) | 15.5 µM (inactive) | 16.8 µM (inactive) |  | 15.3 µM (inactive) | 17.9 µM (inactive) | 17 µM (inactive) | 16.2 µM (inactive) | 18 µM (inactive) |  | 19.2 µM (inactive) | 13.4 µM (inactive) | 17.3 µM | 9.14 µM (inactive) | 13.4 µM (inactive) | 19.3 µM (inactive) | 9.82 µM (inactive) | 15 µM (inactive) |
| CC(C)=C1CCC(CN(C)C)C1=O (stereo unspecified) | 3.61 µM (inactive) | 24.1 µM (inactive) | 20.6 µM (inactive) | 6.12 µM (inactive) |  | 17.7 µM (inactive) | 31.5 µM (inactive) | 12.9 µM (inactive) | > 100 µM (inactive) | > 100 µM (inactive) |  | > 100 µM (inactive) | 35.7 µM (inactive) | 14.8 µM | 14.4 µM (inactive) | 15.6 µM (inactive) | 26.3 µM (inactive) | 15 µM (inactive) | 18.1 µM (inactive) |
| CCCCC1CC(c2cccc([N+](=O)[O-])c2)=NO1 (stereo unspecified) | 30.4 µM (inactive) | > 100 µM (inactive) | 28.6 µM (inactive) | > 100 µM (inactive) |  | > 100 µM (inactive) | > 100 µM (inactive) | > 100 µM (inactive) | > 100 µM (inactive) | 30.5 µM (inactive) |  | 50.9 µM (inactive) | 80.9 µM (inactive) | > 100 µM | > 100 µM (inactive) | 43.1 µM (inactive) | > 100 µM (inactive) | > 100 µM (inactive) | 54.8 µM (inactive) |
| C=C(C)C1CC[C@]2(C(=O)O)CCC3(C)[C@H](CCC4[C@@]5(C)CC[C@H](OC6OC(CO)C(O)C6OC6OC(C)C(O)C(O)C6O)[C@@](C)(CO)C5CC[C@]43C)C12 (stereo partly specified) | > 100 µM (inactive) | > 100 µM (inactive) | > 100 µM (inactive) | > 100 µM (inactive) |  | > 100 µM (inactive) | > 100 µM (inactive) | > 100 µM (inactive) | > 100 µM (inactive) | > 100 µM (inactive) |  | 20.1 µM (inactive) | > 100 µM (inactive) | > 100 µM | > 100 µM (inactive) | > 100 µM (inactive) | > 100 µM (inactive) | > 100 µM (inactive) | > 100 µM (inactive) |
| COC(=O)C1C=NNC1C(=O)OC (stereo unspecified) | > 100 µM (inactive) | > 100 µM (inactive) | > 100 µM (inactive) | > 100 µM (inactive) |  | > 100 µM (inactive) | > 100 µM (inactive) | > 100 µM (inactive) | > 100 µM (inactive) | > 100 µM (inactive) |  | > 100 µM (inactive) | > 100 µM (inactive) | > 100 µM | > 100 µM (inactive) | > 100 µM (inactive) | > 100 µM (inactive) | > 100 µM (inactive) | > 100 µM (inactive) |
| Cc1cc(NS(=O)(=O)c2ccc(NC(=O)c3ccc(Cl)c4c(Nc5ccc(S(=O)(=O)Nc6cc(C)on6)cc5)c5ccccc5nc34)cc2)no1 | 21.3 µM (inactive) | 22.4 µM (inactive) | 19.8 µM (inactive) | 28.1 µM (inactive) |  | 19 µM (inactive) | 13.8 µM (inactive) | 14.2 µM (inactive) | 14.9 µM (inactive) | 25.6 µM (inactive) |  | 15.9 µM (inactive) | > 10 µM (inactive) | 18.7 µM | 22.2 µM (inactive) | 23 µM (inactive) | 20.9 µM (inactive) | 34.6 µM (inactive) | 14.4 µM (inactive) |
| CN(C(=O)C1CC1)C1C2CN3CCC(O2)C13 (stereo unspecified) | > 100 µM (inactive) | > 100 µM (inactive) | > 100 µM (inactive) | > 100 µM (inactive) |  | > 100 µM (inactive) | > 100 µM (inactive) | > 100 µM (inactive) | > 100 µM (inactive) | > 100 µM (inactive) |  | > 100 µM (inactive) | > 100 µM (inactive) | > 100 µM | > 100 µM (inactive) | > 100 µM (inactive) | > 100 µM (inactive) | > 100 µM (inactive) | > 100 µM (inactive) |
| COc1nc(NC2OCC(OC(C)=O)C(OC(C)=O)C2OC(C)=O)c(/N=C\C=N\c2c(NC3OCC(OC(C)=O)C(OC(C)=O)C3OC(C)=O)nc(OC)n(C)c2=O)c(=O)n1C (stereo unspecified) | > 100 µM (inactive) | > 100 µM (inactive) | > 100 µM (inactive) | > 100 µM (inactive) |  | > 100 µM (inactive) | > 100 µM (inactive) | > 100 µM (inactive) | > 100 µM (inactive) | > 100 µM (inactive) |  | > 100 µM (inactive) | > 100 µM (inactive) | > 100 µM | > 100 µM (inactive) | > 100 µM (inactive) | > 100 µM (inactive) | > 100 µM (inactive) | > 100 µM (inactive) |
| C1CC2=C(C1)C1=S(S2)SC2=C1CCC2 | > 100 µM (inactive) | > 100 µM (inactive) | > 100 µM (inactive) | > 100 µM (inactive) |  | 45.7 µM (inactive) | > 100 µM (inactive) | > 100 µM (inactive) | > 100 µM (inactive) | > 100 µM (inactive) |  | > 100 µM (inactive) | > 100 µM (inactive) | > 100 µM | > 100 µM (inactive) | > 100 µM (inactive) | > 100 µM (inactive) | > 100 µM (inactive) | > 100 µM (inactive) |
| CC(C)(C)c1cc(C(C)(C)C)c(SS(=O)(=O)O)c(O)c1O | 65.6 µM (inactive) | 46.5 µM (inactive) | 41.1 µM (inactive) | 51.4 µM (inactive) | 23.9 µM (inactive) | 31.6 µM (inactive) | 13.4 µM (inactive) | 33 µM (inactive) | 15.1 µM (inactive) | 9.33 µM (inactive) | 36.3 µM (inactive) | > 100 µM (inactive) | > 100 µM (inactive) | 48.3 µM | 41.3 µM (inactive) | 34 µM (inactive) | 21.2 µM (inactive) | 28.9 µM (inactive) | 21.5 µM (inactive) |
| C[N+](C)(C)CC(=O)N/N=C(\Cc1nc2ccc([N+](=O)[O-])cc2nc1O)C(=O)Nc1nc2ccc([N+](=O)[O-])cc2s1 | > 100 µM (inactive) | 48.8 µM (inactive) | 45.6 µM (inactive) | 78 µM (inactive) | 85.1 µM (inactive) | 52.2 µM (inactive) | 34 µM (inactive) | 51.9 µM (inactive) | 31.8 µM (inactive) | 36.3 µM (inactive) | 29.4 µM (inactive) | 25.7 µM (inactive) | 30.7 µM (inactive) | 28 µM | 55.1 µM (inactive) | 37.3 µM (inactive) | 28.1 µM (inactive) | 30 µM (inactive) | 62.2 µM (inactive) |
| C[C@H](CCC(=O)O)[C@H]1CC[C@H]2[C@@H]3[C@H](O)C[C@@H]4C[C@H](O)CC[C@]4(C)[C@H]3CC[C@]12C [CHENODIOL] | 34 µM (inactive) | 22.8 µM (inactive) | 24.3 µM (inactive) | 41.7 µM (inactive) | 37 µM (inactive) | 46.8 µM (inactive) | 44.1 µM (inactive) | 33.8 µM (inactive) | 24.7 µM (inactive) | 34.8 µM (inactive) | 30.8 µM (inactive) | 21.4 µM (inactive) | 27.9 µM (inactive) | 32.1 µM | 27.7 µM (inactive) |  | 20 µM (inactive) | 51.9 µM (inactive) | 36.6 µM (inactive) |

Reference: ChEMBL document CHEMBL1201862, “PubChem BioAssay data set” (2004)
